Source: PMC8197855, “Peptide/β-Peptoid Hybrids with Activity against Vancomycin-Resistant Enterococci: Influence of Hydrophobicity and Structural Features on Antibacterial and Hemolytic Properties” (International Journal of Molecular Sciences, 2021)
In brackets after ≈: the same amount, converted by molar mass. Several values for one entry are separate records, joined by “and”; a condition that tells them apart may be missing. Identical values can stand only once.

Legend:
E. faecium ATCC 19434 [1] = experiment: Broth checkerboard assay with conventional antibiotics; assay type: cell-based, Enterococcus faecium; conditions: antibiotic alone (-); BHI broth
Protocol: (§1) The strain culture preparation and final volume were the same as in the MIC assay. […] The plates were incubated for 24 h at 37 °C without shaking. […] All experiments were performed in two biological replicates.
(§2) To evaluate the effect of the combinations, the fractional inhibitory concentration index (FICI) was calculated for each combination according to:ΣFIC = FICA + FICB = (CA/MICA) + (CB/MICB)
(§3) The drug interaction was scored as follows: synergy—FICI ≤ 0.5; no interaction—FICI > 0.5–4; antagonism—FICI > 4 [40].

E. faecalis ATCC 29212 [2] = experiment: as above; assay type: cell-based, Enterococcus faecalis; conditions: antibiotic alone (-); BHI broth
Protocol: as §1, §2, §3

E. faecium 1798 = experiment: microbe, parasite or virus in culture; assay type: cell-based, Enterococcus faecium; conditions: 1798, 24 h
Protocol: (§4) Overnight cultures of the enterococcal isolates were diluted in physiological saline (0.9% NaCl) to reach a turbidity of 0.5 McFarland units (Sensititre® nephelometer and the Sensititre® McFarland Standard). Bacterial suspensions were adjusted to 5 × 10^5 CFU/mL in MHB II or BHI broth containing two-fold dilutions of peptidomimetics or conventional antibiotics in a final volume of 100 µL. The plates were incubated for 24 h at 37 °C without shaking. […] All experiments were performed in three biological replicates.

E. faecium 2961 = experiment: microbe, parasite or virus in culture; assay type: cell-based, Enterococcus faecium; conditions: 2961, 24 h
Protocol: as §4

E. faecium 3978 = experiment: microbe, parasite or virus in culture; assay type: cell-based, Enterococcus faecium; conditions: 3978, 24 h
Protocol: as §4

E. faecium D344R = experiment: microbe, parasite or virus in culture; assay type: cell-based, Enterococcus faecium; conditions: E. faecium D344R, human clinical isolate; 24 h
Protocol: as §4

E. faecium ATCC 19434 [3] = experiment: microbe, parasite or virus in culture; assay type: cell-based, Enterococcus faecium; conditions: ATCC 19434, 24 h
Protocol: as §4, with “replicates. […]” for “replicates.”

E. faecalis ATCC 29212 [4] = experiment: microbe, parasite or virus in culture; assay type: cell-based, Enterococcus faecalis; conditions: ATCC 29212, 24 h
Protocol: as §4, with “replicates. […]” for “replicates.”

[5] = Hydrophobicity by analytical RP-HPLC (% MeCN at peak elution); assay type: physicochemical
Protocol: Water was filtered by using an Evoqua LaboStar PRO TWF Ultra Pure Water System prior to use in high-performance liquid chromatography (HPLC). The retention time for each peptidomimetic was determined by analytical HPLC using a Phenomenex Luna C18(2) HST column (100 mm × 3 mm; particle size: 2.5 μm; pore size: 100 Å) on a Shimadzu Prominence and Shimadzu Nexera system using an aqueous MeCN gradient with 0.1% trifluoroacetic acid (TFA) added (eluent A: 5:95 MeCN–H2O + 0.1% TFA; eluent B: 95:5 MeCN–H2O + 0.1% TFA); a flow rate of 0.5 mL/min was used. For the elution of peptidomimetics, a linear gradient of 0% to 60% B over 10 min was used with UV detection at λ = 220 nm. The percentage MeCN at peak elution was calculated from the retention time (tR) by using the following formula:%MeCN = [0.95 × 0.6 × tR/10 + 0.05 × (1 − 0.6 × tR/10)] × 100%

Hemolytic activity = assay type: cell-based, human; conditions: human, human red blood cells (washed, 1% suspension), 37 °C, 1% red blood cell suspension
Protocol: A suspension of hRBCs (Single-donor human red blood cells—washed; catalogue No. IPLA-W3 from Innovative researchTM) was washed three times with PBS buffer and centrifuged for 5 min at 2500 rpm. A two-fold serial dilution of compounds in PBS buffer was prepared. Plates (conical-bottomed 96-well plates) with 3 replicate wells per dilution, containing 1% red blood cell suspension, were prepared and dosed with the test compound to achieve a final concentration of 400 μg/mL in a total volume of 100 μL. The plates were incubated (37 °C) for 60 min with mild agitation, and then the cells were pelleted by centrifugation at 1500 rpm for 5 min. Then, the supernatants (50 μL) were transferred to a fresh 96-well plate, and then the concentration of hemoglobin was detected by measuring the OD at 405 nm. The OD of cells incubated with 1% SDS achieved 100% hemolysis, while the OD of cells incubated with PBS buffer achieved 0% hemolysis. The concentration tested was 400 μg/mL (only average values are stated in Table 3). The percent hemolysis was calculated by using the formula:Hemolysis(%) = 100 × [(Asample − Aneg.control)/(Apos. control − Aneg.control)]

[6] = system: HepG2 cell line ATCC HB-8065; experiment: Effect on HepG2 cell viability (MTT assay); assay type: cell-based, human; conditions: 48 h
Protocol: The effect of peptidomimetics on mammalian cell viability was determined on the HepG2 cell line ATCC HB-8065. In brief, HepG2 cells were seeded into flat-bottom 96-well plates at a concentration of 5000 cells per well. The cells were incubated for 24 h in a humidified incubator (5% CO2, 37 °C). Subsequently, the medium was removed, and the cells were incubated for 48 h in a humidified incubator (5% CO2, 37 °C) with peptidomimetics in serial dilutions. An MTT assay was then performed; in brief, after incubation with the test compounds, the culture medium was removed and fresh medium with 0.2 mg/mL MTT was then added into each well. After incubation (3 h, 37 °C, 5% CO2), the medium with MTT was removed, and 200 μL dimethyl sulfoxide was added at once to each sample. The absorbance of MTT was measured using the spectrophotometer TECAN Infinite M1000 at 540 nm. The relative viability was calculated by using the formula:ODtreated cells × 100/ODcontrol cells
The IC50 values were calculated using the program Graph Pad Prism 5.0. For all compounds, the test range was 10–1280 μg/mL.

E. faecium isolates = assay type: cell-based, Enterococcus faecium; conditions: 24 h
Protocol: as §4

E. faecalis 38262 = experiment: microbe, parasite or virus in culture; assay type: cell-based, Enterococcus faecalis
Protocol: as §4

E. faecalis 39002 = experiment: microbe, parasite or virus in culture; assay type: cell-based, Enterococcus faecalis; conditions: 39002, 24 h
Protocol: as §4

E. faecalis isolates = assay type: cell-based, Enterococcus faecalis; conditions: 24 h
Protocol: as §4

| Compound | MIC of antibiotic (E. faecium ATCC 19434 [1]) [µg/mL] | MIC of antibiotic (E. faecalis ATCC 29212 [2]) [µg/mL] | Minimum inhibitory concentration (E. faecium 1798) [µg/mL] | Minimum inhibitory concentration (E. faecium 2961) [µg/mL] | Minimum inhibitory concentration (E. faecium 3978) [µg/mL] | Minimum inhibitory concentration (E. faecium D344R) [µg/mL] | Minimum inhibitory concentration (E. faecium ATCC 19434 [3]) [µg/mL] | Minimum inhibitory concentration (E. faecalis ATCC 29212 [4]) [µg/mL] | Hydrophobicity, Luna C18(2) HST (0–60% B; 10 min), retention converted into % MeCN [5] | hemolysis at 60 min, 400 µg/mL (Hemolytic activity) [%] | HepG2 IC50 [6] [µg/mL] | MIC (range or typical value) against E. faecium (E. faecium isolates) [µg/mL] | Minimum inhibitory concentration (E. faecalis 38262; 38262, 24 h) [µg/mL] | Minimum inhibitory concentration (E. faecalis 39002) [µg/mL] | MIC (range) against E. faecalis (E. faecalis isolates) [µg/mL] | Minimum inhibitory concentration (E. faecalis 38262; E. faecalis 38262, veterinary isolate, 24 h) [µg/mL] |
| --- | --- | --- | --- | --- | --- | --- | --- | --- | --- | --- | --- | --- | --- | --- | --- | --- |
| CC[C@H]1OC(=O)[C@H](C)[C@@H](O[C@H]2C[C@@](C)(OC)[C@@H](O)[C@H](C)O2)[C@H](C)[C@@H](O[C@@H]2O[C@H](C)C[C@H](N(C)C)[C@H]2O)[C@](C)(O)C[C@@H](C)CN(C)[C@H](C)[C@@H](O)[C@]1(C)O [Azithromycin, azithromycin] | 4 to 8 | 1 to 2 |  |  |  |  |  |  |  |  |  |  |  |  |  |  |
| C[C@@H](c1ccccc1)N(CCC(N)=O)C(=O)[C@H](CCCCN)NC(=O)CCN(C(=O)[C@H](CCCCNC(=N)N)NC(=O)CCN(C(=O)[C@H](CCCCN)NC(=O)CCN(C(=O)[C@H](CCCCNC(=N)N)NC(=O)CCN(C(=O)[C@H](CCCCN)NC(=O)CCN(C(=O)[C@H](CCCCNC(=N)N)NC(=O)CNCCCNCCCCNCCCN)[C@@H](C)c1ccccc1)[C@@H](C)c1ccccc1)[C@@H](C)c1ccccc1)[C@@H](C)c1ccccc1)[C@@H](C)c1ccccc1 [Compound 3, SpermineAc-[hArg-βNspe-Lys-βNspe]3-NH2] |  |  | 4 to 8 | 8 (≈ 3.63 µM) | 8 (≈ 3.63 µM) | 4 to 8 | 16 to 32 | >32 | 40 % MeCN and 40.2 % MeCN | 0.6 | 41 | 4 to 8 |  |  |  |  |
| C[C@@H](c1ccccc1)N(CCC(N)=O)C(=O)[C@H](CCCCN)NC(=O)CCN(C(=O)[C@H](CCCCNC(=N)N)NC(=O)CCN(C(=O)[C@H](CCCCN)NC(=O)CCN(C(=O)[C@H](CCCCNC(=N)N)NC(=O)CCN(C(=O)[C@H](CCCCN)NC(=O)CCN(C(=O)[C@H](CCCCNC(=N)N)NC(=O)CCN(C(=O)[C@H](CCCCN)NC(=O)CCN(C(=O)[C@@H](N)CCCCNC(=N)N)[C@@H](C)c1ccccc1)[C@@H](C)c1ccccc1)[C@@H](C)c1ccccc1)[C@@H](C)c1ccccc1)[C@@H](C)c1ccccc1)[C@@H](C)c1ccccc1)[C@@H](C)c1ccccc1 [Compound 4, H-[hArg-βNspe-Lys-βNspe]4-NH2] |  |  | 4 (≈ 1.53 µM) | 4 (≈ 1.53 µM) | 4 to 8 | 4 (≈ 1.53 µM) | 8 (≈ 3.06 µM) | >32 | 43.6 % MeCN | 2.6 | 42 | 4 to 8 | 16 (≈ 6.12 µM) | 32 (≈ 12.2 µM) |  |  |
| C[C@@H](c1ccccc1)N(CCC(=O)N[C@@H](CCCCN)C(=O)N(CCC(=O)N[C@@H](CCCCNC(=N)N)C(=O)N(CCC(=O)N[C@@H](CCCCN)C(=O)N(CCC(=O)N[C@@H](CCCCNC(=N)N)C(=O)N(CCC(=O)N[C@@H](CCCCN)C(=O)N(CCC(N)=O)[C@@H](C)c1ccccc1)[C@@H](C)c1ccccc1)[C@@H](C)c1ccccc1)[C@@H](C)c1ccccc1)[C@@H](C)c1ccccc1)C(=O)[C@H](CCCCNC(=N)N)NC(=O)C=Cc1ccccc1 [Compound 6, Cinn-[hArg-βNspe-Lys-βNspe]3-NH2] |  |  | 4 (≈ 1.91 µM) | 4 (≈ 1.91 µM) | 4 (≈ 1.91 µM) | 4 (≈ 1.91 µM) | 8 (≈ 3.82 µM) | 16 (≈ 7.64 µM) | 45.9 % MeCN | 15.7 | 42 | 4 to 8 | 16 (≈ 7.64 µM) | 16 (≈ 7.64 µM) | 16 (≈ 7.64 µM) |  |
| NCCCC[C@H](NC(=O)CCN(Cc1ccc(F)cc1)C(=O)[C@H](CCCCN)NC(=O)CCN(Cc1ccc(F)cc1)C(=O)[C@H](CCCCN)NC(=O)CCN(Cc1ccc(F)cc1)C(=O)[C@H](CCCCN)NC(=O)CCN(Cc1ccc(F)cc1)C(=O)[C@H](CCCCN)NC(=O)CCN(Cc1ccc(F)cc1)C(=O)[C@H](CCCCN)NC(=O)CCN(Cc1ccc(F)cc1)C(=O)[C@H](CCCCN)NC(=O)CCN(Cc1ccc(F)cc1)C(=O)[C@@H](N)CCCCN)C(=O)N(CCC(N)=O)Cc1ccc(F)cc1 [Compound 7, H-[Lys-βNPhe(F)]8-NH2] |  |  | 2 to 4 | 2 to 4 | 4 to 8 | 4 to 8 | 8 to 16 | 8 to 16 | 41.3 % MeCN | 1.5 | 50 |  |  | 8 to 16 |  | > 32 |
| CNC(C)C1CCC(N)C(OC2C(N)CC(N)C(OC3OCC(C)(O)C(NC)C3O)C2O)O1 (stereo not drawn) [Gentamicin, gentamicin] | 64 | 16 |  |  |  |  |  |  |  |  |  |  |  |  |  |  |
| CC(=O)NC[C@H]1CN(c2ccc(N3CCOCC3)c(F)c2)C(=O)O1 [Linezolid, linezolid] | 2 | 2 |  |  |  |  |  |  |  |  |  |  |  |  |  |  |
| CO[C@H]1/C=C/O[C@@]2(C)Oc3c(C)c(O)c4c(O)c(c(/C=N/N5CCN(C)CC5)c(O)c4c3C2=O)NC(=O)/C(C)=C\C=C\[C@H](C)[C@H](O)[C@@H](C)[C@@H](O)[C@@H](C)[C@H](OC(C)=O)[C@@H]1C [Rifampicin, rifampicin] | 8 | 1 |  |  |  |  |  |  |  |  |  |  |  |  |  |  |
